From PubChem BioAssay (NCI)
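Protocol summary: plate cells (96-well), add compound at 5 concentrations, incubate 48 h, interpolate endpoints linearly. TGI: total growth inhibition.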 Square brackets hold non-standard residues; d marks the D form. Peptide text beside a SMILES is read from it. * marks the point of attachment. Boc = CC(C)(C)OC(=O)*; OBn = c1ccc(CO*)cc1

What was measured:
Assay in all cases: growth of human tumour cells (NCI), 48 h
M14 melanoma = tested on: M14 melanoma
SK-OV-3 ovarian = tested on: SK-OV-3 ovarian
OVCAR-8 ovarian = tested on: OVCAR-8 ovarian
MDA-MB-435 = tested on: MDA-MB-435
HCT-116 colon = tested on: HCT-116 colon
ACHN renal = tested on: ACHN renal
NCI-H522 lung = tested on: NCI-H522 lung
U251 CNS = tested on: U251 CNS
T-47D breast = tested on: T-47D breast
CAKI-1 renal = tested on: CAKI-1 renal
NCI/ADR-RES ovarian = tested on: NCI/ADR-RES ovarian
BT-549 breast = tested on: BT-549 breast
UACC-257 melanoma = tested on: UACC-257 melanoma
LOX IMVI melanoma = tested on: LOX IMVI melanoma
NCI-H226 lung = tested on: NCI-H226 lung
MDA-N = tested on: MDA-N
786-0 renal = tested on: 786-0 renal
MOLT-4 leukemia = tested on: MOLT-4 leukemia
UACC-62 melanoma = tested on: UACC-62 melanoma
HL-60(TB) leukemia = tested on: HL-60(TB) leukemia
TK-10 renal = tested on: TK-10 renal
COLO 205 colon = tested on: COLO 205 colon
HT29 colon = tested on: HT29 colon
IGROV1 ovarian = tested on: IGROV1 ovarian
NCI-H23 lung = tested on: NCI-H23 lung
MCF7 breast = tested on: MCF7 breast
RXF 393 renal = tested on: RXF 393 renal
SK-MEL-5 melanoma = tested on: SK-MEL-5 melanoma
MALME-3M melanoma = tested on: MALME-3M melanoma
UO-31 renal = tested on: UO-31 renal
K-562 leukemia = tested on: K-562 leukemia
HCT-15 colon = tested on: HCT-15 colon
SNB-75 CNS = tested on: SNB-75 CNS
OVCAR-5 ovarian = tested on: OVCAR-5 ovarian
SW-620 colon = tested on: SW-620 colon
MDA-MB-231 breast = tested on: MDA-MB-231 breast
DU-145 prostate = tested on: DU-145 prostate
SR leukemia = tested on: SR leukemia
A549 NSCLC = tested on: A549 NSCLC
EKVX NSCLC = tested on: EKVX NSCLC
HS 578T breast = tested on: HS 578T breast
SK-MEL-2 melanoma = tested on: SK-MEL-2 melanoma
KM12 colon = tested on: KM12 colon
OVCAR-4 ovarian = tested on: OVCAR-4 ovarian
HOP-92 NSCLC = tested on: HOP-92 NSCLC
SF-539 CNS = tested on: SF-539 CNS
SNB-19 CNS = tested on: SNB-19 CNS
SF-268 CNS = tested on: SF-268 CNS
PC-3 prostate = tested on: PC-3 prostate
SK-MEL-28 melanoma = tested on: SK-MEL-28 melanoma
SF-295 CNS = tested on: SF-295 CNS
SN12C renal = tested on: SN12C renal
CCRF-CEM leukemia = tested on: CCRF-CEM leukemia
A498 renal = tested on: A498 renal
OVCAR-3 ovarian = tested on: OVCAR-3 ovarian
HOP-62 NSCLC = tested on: HOP-62 NSCLC
RPMI-8226 leukemia = tested on: RPMI-8226 leukemia
NCI-H460 lung = tested on: NCI-H460 lung

Structure (SMILES): C[C@@H](NC(=O)CNC(=O)OC(C)(C)C)C(=O)N[C@@H](Cc1ccccc1)C(=O)OCc1ccccc1 (Boc-Gly-[dA]-Phe-OBn)
- TGI (M14 melanoma): 44.7 µM
- TGI (SK-OV-3 ovarian): > 100 µM
- TGI (OVCAR-8 ovarian): > 100 µM
- TGI (MDA-MB-435): > 100 µM
- TGI (HCT-116 colon): > 100 µM
- TGI (ACHN renal): > 100 µM
- TGI (NCI-H522 lung): 80.4 µM
- TGI (U251 CNS): > 100 µM
- TGI (T-47D breast): > 100 µM
- TGI (CAKI-1 renal): > 100 µM
- TGI (NCI/ADR-RES ovarian): > 100 µM
- TGI (BT-549 breast): > 100 µM
- TGI (UACC-257 melanoma): > 100 µM
- TGI (LOX IMVI melanoma): 58 µM
- TGI (NCI-H226 lung): > 100 µM
- TGI (MDA-N): > 100 µM
- TGI (786-0 renal): > 100 µM
- TGI (MOLT-4 leukemia): 88.1 µM
- TGI (UACC-62 melanoma): > 100 µM
- TGI (HL-60(TB) leukemia): > 100 µM
- TGI (TK-10 renal): > 100 µM
- TGI (COLO 205 colon): 32.7 µM
- TGI (HT29 colon): > 100 µM
- TGI (IGROV1 ovarian): > 100 µM
- TGI (NCI-H23 lung): > 100 µM
- TGI (MCF7 breast): > 100 µM
- TGI (RXF 393 renal): > 100 µM
- TGI (SK-MEL-5 melanoma): 42.2 µM
- TGI (MALME-3M melanoma): 32.6 µM
- TGI (UO-31 renal): > 100 µM
- TGI (K-562 leukemia): 64.4 µM
- TGI (HCT-15 colon): > 100 µM
- TGI (SNB-75 CNS): > 100 µM
- TGI (OVCAR-5 ovarian): > 100 µM
- TGI (SW-620 colon): > 100 µM
- TGI (MDA-MB-231 breast): > 100 µM
- TGI (DU-145 prostate): > 100 µM
- TGI (SR leukemia): 88.9 µM
- TGI (A549 NSCLC): > 100 µM
- TGI (EKVX NSCLC): > 100 µM
- TGI (HS 578T breast): 71.2 µM
- TGI (SK-MEL-2 melanoma): > 100 µM
- TGI (KM12 colon): > 100 µM
- TGI (OVCAR-4 ovarian): > 100 µM
- TGI (HOP-92 NSCLC): 45.3 µM
- TGI (SF-539 CNS): > 100 µM
- TGI (SNB-19 CNS): > 100 µM
- TGI (SF-268 CNS): > 100 µM
- TGI (PC-3 prostate): > 100 µM
- TGI (SK-MEL-28 melanoma): 39.4 µM
- TGI (SF-295 CNS): > 100 µM
- TGI (SN12C renal): > 100 µM
- TGI (CCRF-CEM leukemia): 67 µM

Structure (SMILES): CC(C)C(=O)OCN(C)c1nc(N(C)COC(=O)C(C)C)nc(N(C)COC(=O)C(C)C)n1
- TGI (M14 melanoma): 33 µM
- TGI (OVCAR-8 ovarian): 45.5 µM
- TGI (MDA-MB-435): 32.2 µM
- TGI (A498 renal): > 100 µM
- TGI (HCT-116 colon): > 100 µM
- TGI (ACHN renal): 99.6 µM
- TGI (NCI-H522 lung): 36 µM
- TGI (OVCAR-3 ovarian): > 100 µM
- TGI (T-47D breast): > 100 µM
- TGI (CAKI-1 renal): > 100 µM
- TGI (NCI/ADR-RES ovarian): > 100 µM
- TGI (BT-549 breast): 46.2 µM
- TGI (UACC-257 melanoma): 38.2 µM
- TGI (LOX IMVI melanoma): 39.1 µM
- TGI (NCI-H226 lung): > 100 µM
- TGI (MDA-N): 46.2 µM
- TGI (786-0 renal): 65.2 µM
- TGI (MOLT-4 leukemia): 58.1 µM
- TGI (HOP-62 NSCLC): > 100 µM
- TGI (HL-60(TB) leukemia): 48.9 µM
- TGI (TK-10 renal): > 100 µM
- TGI (COLO 205 colon): 51.3 µM
- TGI (HT29 colon): 66.3 µM
- TGI (NCI-H23 lung): 41.2 µM
- TGI (MCF7 breast): > 100 µM
- TGI (SK-MEL-5 melanoma): 28.4 µM
- TGI (UO-31 renal): 52.5 µM
- TGI (K-562 leukemia): > 100 µM
- TGI (HCT-15 colon): 51 µM
- TGI (SNB-75 CNS): 61.9 µM
- TGI (OVCAR-5 ovarian): 95.3 µM
- TGI (RPMI-8226 leukemia): > 100 µM
- TGI (SW-620 colon): 89.6 µM
- TGI (MDA-MB-231 breast): 57.7 µM
- TGI (DU-145 prostate): > 100 µM
- TGI (SR leukemia): 50.5 µM
- TGI (A549 NSCLC): > 100 µM
- TGI (EKVX NSCLC): > 100 µM
- TGI (HS 578T breast): 49.1 µM
- TGI (NCI-H460 lung): 54.2 µM
- TGI (SK-MEL-2 melanoma): 49.8 µM
- TGI (KM12 colon): 43.9 µM
- TGI (OVCAR-4 ovarian): 58.3 µM
- TGI (SF-539 CNS): 53.9 µM
- TGI (SNB-19 CNS): > 100 µM
- TGI (PC-3 prostate): > 100 µM
- TGI (SK-MEL-28 melanoma): 44.5 µM
- TGI (SF-295 CNS): 93.2 µM
- TGI (SN12C renal): > 100 µM
- TGI (CCRF-CEM leukemia): 70.5 µM

Structure (SMILES): CCOC(=O)O/C(=C\c1ccc(OC)cc1)c1c(OC(=O)OCC)n(C(=O)OCC)c2ccccc12
- TGI (M14 melanoma): > 100 µM
- TGI (SK-OV-3 ovarian): 99.7 µM
- TGI (OVCAR-8 ovarian): > 100 µM
- TGI (MDA-MB-435): > 100 µM
- TGI (A498 renal): 27.3 µM
- TGI (HCT-116 colon): > 100 µM
- TGI (ACHN renal): > 100 µM
- TGI (OVCAR-3 ovarian): > 100 µM
- TGI (U251 CNS): > 100 µM
- TGI (T-47D breast): > 100 µM
- TGI (CAKI-1 renal): > 100 µM
- TGI (NCI/ADR-RES ovarian): > 100 µM
- TGI (BT-549 breast): > 100 µM
- TGI (UACC-257 melanoma): > 100 µM
- TGI (LOX IMVI melanoma): > 100 µM
- TGI (NCI-H226 lung): > 100 µM
- TGI (MDA-N): > 100 µM
- TGI (786-0 renal): > 100 µM
- TGI (HOP-62 NSCLC): > 100 µM
- TGI (UACC-62 melanoma): > 100 µM
- TGI (HL-60(TB) leukemia): > 100 µM
- TGI (TK-10 renal): 93.7 µM
- TGI (COLO 205 colon): > 100 µM
- TGI (HT29 colon): > 100 µM
- TGI (IGROV1 ovarian): > 100 µM
- TGI (NCI-H23 lung): > 100 µM
- TGI (MCF7 breast): > 100 µM
- TGI (RXF 393 renal): 67.9 µM
- TGI (SK-MEL-5 melanoma): > 100 µM
- TGI (MALME-3M melanoma): > 100 µM
- TGI (UO-31 renal): > 100 µM
- TGI (K-562 leukemia): > 100 µM
- TGI (HCT-15 colon): > 100 µM
- TGI (SNB-75 CNS): > 100 µM
- TGI (OVCAR-5 ovarian): > 100 µM
- TGI (SW-620 colon): > 100 µM
- TGI (MDA-MB-231 breast): 77.6 µM
- TGI (DU-145 prostate): > 100 µM
- TGI (SR leukemia): > 100 µM
- TGI (A549 NSCLC): > 100 µM
- TGI (EKVX NSCLC): > 100 µM
- TGI (HS 578T breast): > 100 µM
- TGI (NCI-H460 lung): 30.3 µM
- TGI (SK-MEL-2 melanoma): > 100 µM
- TGI (KM12 colon): > 100 µM
- TGI (OVCAR-4 ovarian): > 100 µM
- TGI (SF-539 CNS): > 100 µM
- TGI (SF-268 CNS): > 100 µM
- TGI (PC-3 prostate): > 100 µM
- TGI (SK-MEL-28 melanoma): > 100 µM
- TGI (SF-295 CNS): > 100 µM
- TGI (SN12C renal): > 100 µM
- TGI (CCRF-CEM leukemia): > 100 µM
